Series [1] relates to A. castellanii Neff. The series is described as follows: Anti-Acanthamoeba activity on trophozoites, alamarBlue colorimetric assay. In kind it is cell-based, Acanthamoeba castellanii Neff. Conditions: for IC50: 96 h, read-out: IC50 A. castellanii Neff. The procedure: (§1) The amoeba strain used in this study was the type strain: Acanthamoeba castellanii Neff (ATCC 30010) which was axenically grown in PYG medium (0.75% (w/v) proteose peptone, 0.75% (w/v) yeast extract and 1.5% (w/v) glucose) containing 40 µg/mL of gentamicin (Biochrom AG, Cultek, Granollers, Barcelona, Spain). The murine macrophages J774A.1 (ATCC TIB-67) cell line was cultured in RPMI 1640 medium supplemented with 10% fetal bovine serum at 37 °C and 5% CO2 atmosphere, was used for the cytotoxicity assays. Successively, the evaluated molecules were also tested against two clinical isolates, Acanthamoeba griffini, genotype T3 obtained in a previous study, and Acanthamoeba polyphaga genotype T4 ATCC 30461, both axenically grown in the same medium as A. castellanii Neff.
(§2) To evaluate the biological activity of the fractions and molecules, the anti-Acanthamoeba experiments were carried out using the alamarBlue® colorimetric assay, as it was previously described. Briefly, Acanthamoeba strain was seeded in triplicate on 96-well microtiter plates (ThermoFisher™, Waltham, MA, USA) with 50 µL from a stock solution of 5 × 10^4 cells/mL and 50 µL of serial dilutions of the evaluated molecules in each well (1% DMSO was used to dissolve the highest dose of the compounds with no effects on the parasites). Two reference treatments such as chlorhexidine (chlorhexidine digluconate; Alfa Aesar) and voriconazole (Sigma), were used as positive controls. Finally, the alamarBlue® Reagent (Life Technologies, Madrid, Spain) was placed into each well at an amount equal to 10% of the final volume. Plates were incubated for 96 h at 26 °C with a slight agitation until their measurement in the EnSpire® Multimode Plate Reader (Perkin Elmer, Madrid, Spain) using fluorescence, at 570/585 nm.
(§3) The percentage of the growth inhibition, 50% inhibitory concentration (IC50 or CC50), was calculated by nonlinear regression analysis with 95% confidence limits using Sigma Plot 12.0 statistical analysis software (Systat Software). All experiments were performed three times, and the mean values were also calculated. A paired two-tailed t-test was used for analysis of the data. Values of p < 0.05 were considered significant.
In general terms: The colour change of resazurin is a common sign of viable cells or microbes.

Series [2] concerns A. griffini. Described as above. To be noted: 96 h, read-out: IC50 A. griffini. In kind it is cell-based. How it is done: as §1, §2, §3
For series [3], the system named is A. polyphaga. The series is described as above. To be noted: 96 h, read-out: IC50 A. polyphaga. In kind it is cell-based. How it is done: as §1, §2, §3
Series [4] is described as follows: Cytotoxicity test, alamarBlue assay. In kind it is cell-based, murine. Conditions: mouse, 37 °C, mean ± SD. How it is done:
as §1
The cytotoxicity effect of active molecules was evaluated in murine macrophage J774A.1 cell line (ATCC # TIB-67) following the same protocol described above for Acanthamoeba trophozoites. Then, plates containing alamarBlue® were incubated for 24 h at 37 °C in presence of CO2 at 5%.
as §3

Series [5] concerns A. castellanii Neff cysts. The series is described as follows: In vitro activity against cysts (cysticidal assay, alamarBlue). The class given is cell-based, Acanthamoeba castellanii Neff. To be noted: mature cysts. How it is done: On the other side, cysticidal activity of 7OSTS (2) was determined also using the alamarBlue™ reagent and confirmed visually by inverted microscopy. Cysts of A. castellaniii Neff were prepared as previously described. First of all, trophozoites were transferred from PYG medium based cultures (trophozoite medium) to Neff’s encystment medium (NEM; 0.1 M KCl, 8 mM MgSO4·7H2O, 0.4 mM CaCl2·2H2O, 1 mM NaHCO3, 20 mM ammediol [2-amino-2-methyl-1,3-propanediol; Sigma Aldrich Chemistry Ltd., Madrid, Spain], pH 8.8, at 25 °C) and were cultured in this medium with gently shaking for a week in order to obtain mature cysts. In order to carry out the cysticidal assay, mature cysts were harvested and washed twice with PYG medium. Serial dilutions of 7OSTS (2) were made in PYG and place onto sterile 96-well microtiter plates. 5·10^4 mature cysts of Acanthamoeba/mL were added to the wells with 50 µL of 7OSTS (2) dilutions. After 7 days of incubation, the plate was centrifuged at 3000 rpm for 10 min. The supernatant was removed and replaced with 100 µL of fresh PYG medium in each well. Finally, 10 μL of the alamarBlue® Reagent was placed into each well. The plates were then incubated for 144 h at 28 °C and the emitted fluorescence was measured with the EnSpire® Multimode Plate Reader (Perkin Elmer, Madrid, Spain) using fluorescence, at 570/585 nm. […]

Series [6] concerns A. castellanii Neff. The series is described as follows: Double-stain assay (Hoechst 33342/PI) for programmed cell death determination. The class given is cell-based, Acanthamoeba castellanii Neff. To be noted: IC90 concentration, 24 h. How it is done: 10^5 amoebas/well were incubated in a 24-well plate with the previously calculated IC90 of 7OSTS for 24 h. A double-stain apoptosis detection kit (Hoechst 33342/PI) (ThermoFisher™, Waltham, MA, USA) was used to carry out the experiment following the manufacturer’s recommendations. The images were obtained using the EVOS FL Cell Imaging System AMF4300, Life Technologies, USA. The double-staining pattern allows the identification of live cells with low level of fluorescence, cells undergoing PCD with a higher level of blue fluorescence (as chromatin condenses), and dead cells which will show low-blue and high-red fluorescence (as the propidium iodide stain enters the nucleus of dead cells).

Series [7] deals with A. castellanii Neff. The series is described as follows: Analysis of mitochondrial membrane potential (JC-1). In kind it is cell-based, Acanthamoeba castellanii Neff. Conditions: IC90, 24 h. The procedure: The use of JC-1 mitochondrial membrane potential detection kit (Cayman Chemical) it is possible to detect the collapse of an electrochemical gradient across the mitochondrial membrane during apoptosis process. 10^5 amoebas/mL were treated with IC90 of 7OSTS (2) for 24 h, the cells were centrifuged (1000 rpm × 10 min) and suspended in JC-1 buffer. Images were taken on the EVOS FL inverted microscope. The staining pattern allows the identification of two groups in a cellular population: live cells will show only red fluorescence, but cells with low mitochondrial potential (undergoing PCD) will show a higher level of green fluorescence.

Series [8] concerns A. castellanii Neff. The series is described as follows: Measurement of ATP levels (CellTiter-Glo). The class given is cell-based, Acanthamoeba castellanii Neff. Conditions: IC90, 24 h. The procedure: An appropriate level of ATP is necessary to maintain the cell metabolism. The effect of the drug on the ATP production was evaluated by incubating (10^5) of cells/mL with the previously calculated IC90 of 7OSTS (2) using the CellTiter-Glo Luminescent Cell Viability Assay. The luminescence of each assay was measured on the EnSpire®.

The test system of series [9] is A. castellanii Neff. The series is described as follows: Plasma membrane permeability (SYTOX Green). The class given is cell-based, Acanthamoeba castellanii Neff. Conditions: IC90, 24 h. How it is done: In order to detect alterations of the membrane permeability in treated cells, the SYTOX Green (ThermoFischer^TM) assay was performed. Briefly, 10^5 trophozoite were washed and incubated in saline solution with SYTOX Green at a final concentration of 1 μM for 15 min in darkness. After that, IC90 of 7OSTS (2) was added to the cells and incubated for 24 h. Cells were observed and pictures were taken on the EVOS FL inverted microscope.

Series [10] deals with protein kinase C (PKC). Conditions: cited from earlier work.
Series [11] addresses protein kinase A (PKA). Conditions: cited from earlier work.
For series [12], the target named is cyclin-dependent kinase 4 (CDK4). Also on record: method as in PMID 19132059, PMID 14552791. Conditions: cited from earlier work.
For series [13], the target named is calcium/calmodulin-dependent protein kinase II (CaMKII). Also on record: method as in PMID 19132059, PMID 14552791. To be noted: cited from earlier work.
Series [14] has as its system human lung, colon, and nasopharyngeal carcinoma cell lines. Also on record: method as in PMID 3112080. Conditions: read-out: IC50 cytotoxic activity; cited from earlier work.
[15] abbreviates: read-out: Macrophage J774A.1 CC50.

Structures are written as SMILES. Where two headings read alike, the source gives them in different places.

What is called IC50 is the point on the concentration scale where inhibition reaches its midpoint. One may read the CC50 as the concentration giving 50% cytotoxicity. In the case of `COC1C(=O)CC2OC1(C)n1c3ccccc3c3c4c(c5c6ccccc6n2c5c31)C(=O)NC4` (centres unmarked) [4’D4’OSTS (3), 4′-demethylamino-4′-oxostaurosporine], the IC50 is 7.53 ± 0.73 µM in [1] (trophozoites, 26 °C, mean ± SD); 23.9 ± 0.55 µM in series [2] (trophozoites, 26 °C, mean ± SD); > 40 µM in [3] (trophozoites, 26 °C, mean ± SD). Besides, the CC50 at 24 h in series [4] (J774A.1 macrophage cells) is > 40 µM.

In the case of `CNC1CC2OC(C)(C1OC)n1c3ccccc3c3c4c(c5c6ccccc6n2c5c31)C(=O)NC4=O` (centres unmarked) [7OSTS (2), 7-oxostaurosporine], the IC50 in series [1] stood at 0.83 ± 0.09 µM; in [2], 0.96 ± 0.19 µM; in series [3] it was 5.51 ± 0.09 µM; in [5] (Acanthamoeba castellanii), 0.92 ± 0.33 µM. In addition, in series [1] (read-out: IC90 concentration), the IC90 is 2.91 ± 0.67 µM. For the same compound, the CC50 at 24 h in [4] (setting [15]) turned out to be 5.2 ± 1.75 µM. Besides, the Cyst viability entry in series [5] (incubation up to 144 h) is “non-viable cysts were observed”. In addition, the Chromatin condensation entry in series [6] is reported as “induces chromatin condensation”. Moreover, the Mitochondrial membrane potential result in series [7] was “decrease of the mitochondrial membrane potential”. Besides, the “ATP level compared to the negative control” value in [8] worked out at 45%. For the same compound, the Plasma membrane permeability result in series [9] was “plasmatic membrane damage”.

For `O=C1NC(=O)c2c1c1c3ccccc3[nH]c1c1[nH]c3ccccc3c21` [Arcyriaflavin A (7), arcyriaflavin A], the IC50 in series [1] (trophozoites, 26 °C, mean ± SD) was 7.32 ± 0.45 µM; in series [2] (trophozoites, 26 °C, mean ± SD), 7.53 ± 1.11 µM; in [3] (trophozoites, 26 °C, mean ± SD), 7.59 ± 0.73 µM; in [10], > 100 µM; in series [11] it was > 2 µM; in series [12], 0.14 µM. The IC50 in series [13] is 0.025 µM.

As for `[H]/N=C(\N/C(=N/[H])NCCCCCCNC(=N)NC(=N)Nc1ccc(Cl)cc1)Nc1ccc(Cl)cc1` [Chlorhexidine, chlorhexidine], the IC50 in series [3] (trophozoites, 26 °C, mean ± SD) was determined as 4.76 ± 0.08 µM. Half-maximal cytotoxicity in [4] (J774A.1 macrophage cells) (CC50 at 24 h) was put at 7.4 ± 0.39 µM.

`COC1=C(C)O[C@@H]2C[C@@]1(OC)n1c3ccccc3c3c4c(c5c6ccccc6n2c5c31)C(=O)NC4` [ICZ B (4), streptocarbazole B]: the IC50 in series [1] (trophozoites, 26 °C, mean ± SD) was 6.83 ± 2.6 µM; in series [2] (trophozoites, 26 °C, mean ± SD), 14.5 ± 0.38 µM; in series [3] (trophozoites, 26 °C, mean ± SD), > 40 µM. Besides, in series [4] (J774A.1 macrophage cells), the CC50 at 24 h was > 40 µM.

Regarding `O=C1NCc2c1c1c3ccccc3[nH]c1c1[nH]c3ccccc3c21` [K252c (6), K252c], the IC50 in series [1] (trophozoites, 26 °C, mean ± SD) was 6.17 ± 0.73 µM; in series [2] (trophozoites, 26 °C, mean ± SD) it was 2.25 ± 0.32 µM; in [3] (trophozoites, 26 °C, mean ± SD), 5.59 ± 0.34 µM; in series [11], 25.7 µM.

With `CO[C@H]1[C@H](O)[C@@H](O)[C@H](n2c3c(Cl)cccc3c3c4c(c5c6cccc(Cl)c6[nH]c5c32)C(=O)NC4=O)O[C@@H]1CO` [Rebeccamycin (5), rebeccamycin], the IC50 in series [1] (trophozoites, 26 °C, mean ± SD) was 5.37 ± 0.23 µM; in series [2] (trophozoites, 26 °C, mean ± SD) it was 5.02 ± 0.18 µM; in series [3] (trophozoites, 26 °C, mean ± SD), 7.47 ± 0.61 µM; in series [14], 0.4 to 98 µM.

As to `CN[C@@H]1C[C@H]2O[C@@](C)([C@@H]1OC)n1c3ccccc3c3c4c(c5c6ccccc6n2c5c31)C(=O)NC4` [STS (1), staurosporine], the CC50 at 24 h in series [4] (setting [15]) was determined as 8.74 ± 0.72 µM.

Turning to `C[C@@H](c1ncncc1F)[C@](O)(Cn1cncn1)c1ccc(F)cc1F` [Voriconazole, voriconazole], the IC50 was found to be 0.94 ± 0.29 µM in series [1] (trophozoites, 26 °C, mean ± SD); 0.1 ± 0.02 µM in series [2] (trophozoites, 26 °C, mean ± SD); 10.1 ± 2.21 µM in [3] (trophozoites, 26 °C, mean ± SD). The same compound gave a CC50 at 24 h in [4] (J774A.1 macrophage cells) of 7.56 ± 0.77 µM.

The values are drawn from paper PMC6836125, “Antiamoebic Activities of Indolocarbazole Metabolites Isolated from Streptomyces sanyensis Cultures” (Marine Drugs, 2019).
